# From patent publication US11026965B2, “Nitric oxide-releasing cyclodextrins as biodegradable antibacterial scaffolds and methods pertaining thereto” (The University of North Carolina at Chapel Hill, priority 2018, dated 2021)
# Like-named read-outs stand apart in the source and are kept apart here.
# Tests used:
# [1] = tested on: A549 human lung carcinoma cells; test: Anticancer action against A549 cells, 24 h MTS assay; assay type: cell-based; settings: A549, 24 h MTS; error = 95% confidence interval for IC50
# Description: Anticancer potential was evaluated against A549 human lung carcinoma cells using an MTS assay. […] All cell work performed in RPMI media and materials corrected for pH using 0.1 M HCl. […]
# L929 mouse fibroblasts = test: In-vitro cytotoxicity, L929 mouse fibroblasts, MTS, 4 h exposure; assay type: cell-based
# Description: L929 mouse fibroblasts were cultured in DMEM supplemented with 10% v/v fetal bovine serum (FBS) and 1 wt % penicillin/streptomycin, and incubated in 5% v/v CO2 under humidified conditions at 37° C. After reaching confluency (80%), the cells were trypsinized, seeded onto tissue-culture treated polystyrene 96-well plates at a density of 1×10^4 cells/mL, and incubated at 37° C. for 24 hours. The supernatant was then aspirated and replaced with 100 μL of fresh growth medium containing various concentrations of both unmodified control and NO-releasing CD derivatives to each well. After incubation at 37° C. for 4 hours, the supernatant was aspirated and 100 μL of a mixture of DMEM/MTS/PMS (105/20/1, v/v/v) was added to each well. The absorbance of the resulting colored solutions over 3 hours incubation was quantified by using a ThermoScientific Multiskan EX plate reader (Waltham, Mass.) at 490 nm. The mixture of DMEM/MTS/PMS and untreated cells were used as a blank and control, respectively. Cell viability was calculated according to the following formula: […]
# Despite effective bactericidal capability, the applicability of new antibacterial agents is also determined by their toxicity to mammalian cells. With respect to therapeutic potential, toxicity to mammalian cells is an important factor in the development of any new antibacterial agent. The cytotoxicity of CD-NONOates was evaluated by exposing mouse fibroblast cells to various concentrations (0˜2000 μg/mL) of both control and NO-releasing CD derivatives over a 4 hour exposure. […] Both CD-PA7/NO and CD-MA7/NO were tolerable to the mouse fibroblasts even at 2000 μg/mL (63% and 73% cell viability for CD-PA7/NO and CD-MA7/NO, respectively). […] The behavior is in part related to the effective delivery of NO induced by the fast cellular uptake of positively charged macromolecular systems. This behavior was also ascribed to the large amounts of terminal primary amines groups.
# [2] = NO-release properties of NO-releasing cyclodextrins at pH 5.4 and pH 7.4 (Table 5); assay type: physicochemical
# Description: Additional studies were carried out to investigate NO-release properties from β-cyclodextrin under conditions consistent with healthy tissue (pH 7.4) and those of tumor microenvironments (pH 5.4). These studies also evaluated the role of NO-release properties on anticancer action using A549 lung cancer cells with two modifications to vary release kinetics (mono- and hepta-substitution to vary NO totals). This study also evaluated the efficacy of a combined therapeutic (a nitric oxide releasing CD with DOX) as compared to each therapeutic agent individually. […] Several different functionalized CDs were prepared as shown in Table 5 and using techniques as described elsewhere herein. […] All modifications (PA, DETA, and DETA7) except for PA7 have t1/2 under 10 min.
# planktonic P. aeruginosa = test: Bactericidal assay against planktonic P. aeruginosa (4 h, static, MBC4h = 3-log reduction); assay type: cell-based, Pseudomonas aeruginosa; settings: for MBC: Pseudomonas aeruginosa
# Description: Nitric oxide may be an efficient antibacterial agent. The antibacterial activity of the NO-releasing CD derivatives was evaluated against Gram-negative P. aeruginosa, a model pathogen associated with serious medical infections (e.g., traumatic burns, cystic fibrosis). Pseudomonas aeruginosa is a Gram-negative pathogen. Bacterial viability assays were performed under static conditions. Minimum bactericidal concentrations over 4 hours exposure (MBC4h) were used to quantify their bactericidal activity, being required to eliminate bacteria viability by 3 logs (e.g., 99.9% killing). The total NO amount delivered by NO-releasing CD derivatives over this period was also calculated to quantitatively evaluate the required NO dose to achieve bactericidal activity.
# The TSA bacterial stock of P. aeruginosa colony was cultured in 3 mL of TSB overnight (around 16 hours) at 37° C. A 1000 μL aliquot of the resulting suspension was added into 15 mL of fresh TSB and incubated at 37° C. for another 2 hours, to achieve a concentration of 10^8 colony forming units per mL (CFU/mL, confirmed by the OD600). The bacteria was collected by centrifugation, resuspended in sterile PBS, and diluted to 10^6 CFU/mL. The antibacterial efficacy of both non-NO-releasing and NO-releasing CD derivatives against P. aeruginosa was evaluated under static condition over 4 hours at 37° C. Blanks (untreated cells) were incubated in each experiment to ensure the bacteria remained viable at 10^6 CFU/mL over 4 hour assay. 100 μL aliquots of blank, control or NO-releasing CD derivatives treated bacteria suspensions were shifted, diluted 10-fold in sterile H2O and plated on TSA plates using an Eddy Jet spiral plater (IUL; Farmingdale, N.Y.), followed by incubation overnight at 37° C. Bacterial viability was evaluated via total colony count on the TSA plates by using a Flash & Go colony counter (IUL; Farmingdale, N.Y.). […] Of note, the limit of detection for this selected plate counting method is 2.5×10^3 CFU/mL.
# Additional testing was done to determine the antibacterial efficacy and toxicity of DETA, DETA/NO (DETA functionalized with NO), and DETA/NO mixed with CD (at ratios of 1:1 or 1:2) as compared to CD-DETA or CD-DETA/NO (CD-DETA functionalized with NO). The same conditions as disclosed above for antibacterial testing and cytotoxicity was used.
# [3] = 4 h exposure, 3-log reduction in viability
[NO]max ([2]; pH 5.4),[NO]t ([2]; pH 5.4),td ([2]; pH 5.4),[NO]max ([2]; pH 7.4),[NO]t ([2]; pH 7.4),td ([2]; pH 7.4),SMILES,NO dose [1],MBC4 h (planktonic P. aeruginosa; [3]),further results
32000 ± 2500 ppb mg^−1,0.74 ± 0.04 µmol/mg,14.6 ± 0.8 h,900 ± 100 ppb mg^−1,0.68 ± 0.03 µmol/mg,20.2 ± 0.6 h,NCCNCCNCC1OC2OC3C(CO)OC(OC4C(CO)OC(OC5C(CO)OC(OC6C(CO)OC(OC7C(CO)OC(OC8C(CO)OC(OC1C(O)C2O)C(O)C8O)C(O)C7O)C(O)C6O)C(O)C5O)C(O)C4O)C(O)C3O (stereo not drawn) [CD-DETA],1.07 ± 0.06 µmol/mL,8000 µg/mL,L929 viability (L929 mouse fibroblasts; up to 2 mg/mL): > 60%; MBC4 h (planktonic P. aeruginosa; 4 h exposure): 8000 µg/mL
25100 ± 5700 ppb mg^−1,0.56 ± 0.09 µmol/mg,5.0 ± 0.8 h,2100 ± 300 ppb mg^−1,0.60 ± 0.07 µmol/mg,17.0 ± 1.0 h,CCCNCC1OC2OC3C(CO)OC(OC4C(CO)OC(OC5C(CO)OC(OC6C(CO)OC(OC7C(CO)OC(OC8C(CO)OC(OC1C(O)C2O)C(O)C8O)C(O)C7O)C(O)C6O)C(O)C5O)C(O)C4O)C(O)C3O (stereo not drawn) [CD-PA],0.97 ± 0.16 µmol/mL,–,–
–,–,–,–,–,–,"NCCNCCN [DETA, diethylenetriamine]",–,–,"concentration at which toxic (L929 mouse fibroblasts; FIG. 21e): 4000 µg/mL; bactericidal efficacy (in words) (planktonic P. aeruginosa; 4 h incubation): highly antimicrobial; MBC (planktonic P. aeruginosa; 4 h exposure, 3-log reduction in viability, read-out: MBC4 h): 250 mg/L"
–,–,–,–,–,–,NCCN(CCN)/[N+]([O-])=N/O [DETA/NO],–,1000 µg/mL,–
–,–,–,–,–,–,"CC(CN1c2ccccc2Sc2ccccc21)N(C)C (stereo not drawn) [PM, promethazine]",–,–,"cytotoxicity at MBC4h concentration (in words) (L929 mouse fibroblasts): toxic to the vast majority of the mouse fibroblast cells; MBC (planktonic P. aeruginosa; concentration of PM, PM and CD derivative 1:1 molar, read-out: PM MBC4 h): 100 mg/L; MBC4h for PM (planktonic P. aeruginosa; concentration of PM): 100 µg/mL"
